Ends that are not written are not given here.
Test system: hMSCs
Assay: Loss of stemness, STRO-1 immunostaining
Format: cell-based, human
Conditions: compound in solution in cell culture media
Method: The cells were first fixed for 20 min with 4% paraformaldehyde/PBS at 4° C. After fixation, the cells were permeabilized in PBS containing 1% Triton X-100 for 15 min. Runx2, Osterix, Stro-1, Vinculin, Phalloidin, Osteopontin, Sox2, Sox9 antibodies were visualized by treating the cells with 1% (v/v) specific monoclonal antibodies for 1 hour at 37° C. Then the samples were incubated with Alexa Fluor® 568 or 647 (F(ab′)2 fragment of IgG(H+L)) during 30 min at room temperature. The cell nuclei were counterstained in 20 ng/mL DAPI for 10 min at room temperature.
For this type of quantification the freeware image analysis ImageJ® software was used. The raw image was first converted to an 8-bit file, and then the unsharp mask feature was used (settings 1:0.2) to remove the image background (rolling ball radius 10). After smoothing, the resulting image, which appears similar to the original photomicrograph but with minimal background, was then converted to a binary image by setting a threshold. Threshold values were determined empirically by selecting a setting, which gave the most accurate binary image for a subset of randomly selected photomicrographs. The cell area was determined by manual delineation on raw fluorescent images. Total contact area and mean contact area per cell were calculated by “analyse particules” in ImageJ®. A minimum of […] per condition were analyzed. Stro-1 expression was determined using this procedure.
hMSCs were cultured on conventional cell culture plastic plates with and without the presence in the cell culture media of different GFR-binding compounds as defined hereins (SEQ ID NO: 39 to 45) in solution. […] This was probed by Stro-1 immunostaining after cell fixation as described in the Methods section. The quantification of Stro-1 positive contact numbers and areas was performed as described in the Methods section. A minimum of 30 cells per condition were analyzed. One should note that it is commonly admitted that the expression of STRO-1 in a cell is indicative of a cell that is in a substantially non-differentiated state and the decrease of its expression of at least about 20% is indicative of a cell that has started a processus of differentiation but which may not result in the differentiation of the cell. A decrease of more than 50% would be indicative of the presence of a significant shift towards a differentiated state. A decrease of more than 70% would be indicative of the presence of a very important shift towards a differentiated state. A sustained decrease (e.g. for at least 96 h) of more than 50% or 70% would be indicative of the presence of an even more important shift towards a differentiated state.
Likewise, hMSCs were cultured on conventional cell culture plastic plates with and without the presence in the cell culture media of different GFR-binding compounds as defined herein (SEQ ID NO: 1581 to 1606) in solution. […] This strong decrease was also confirmed after 96 h.

Substance | STRO-1 Expression (%) after 48 h
1581 (GGGGGGGGGDENEKVVNDEGLESVPEDLSSLSVLFFDENEKVV; also: cyclic, closure not given here) [compound 1581] | 33%
1582 (GGGGGGGGGDDSSNVIRVPSTSSVPTGQSAISTLYLDDSSNVI; also: cyclic, closure not given here) [compound 1582] | 29%
1583 (GGGGGGGGGDDSSNVIRVPSTSSAPTKMNAISMLYFDENEKVV; also: cyclic, closure not given here) [compound 1583] | 34%
1584 (GGGGGGGGGDENEKVVGIPEPSSAPVDLKPLSTLYVDENEKVV; also: cyclic, closure not given here) [compound 1584] | 31%
1585 (AAAAAAAAADENEKVVAASKASSVPQEEEPLPMVYYDAANNVV; also: cyclic, closure not given here) [compound 1585] | 27%
1586 (GGGGGGGGGDDSSNVIKIPKASSVPTGGSNITVQIMDDSSNVI; also: cyclic, closure not given here) [compound 1586] | 31%
1587 (AAAAAAAAADENEKVVAASKASSSRVELRSVKIAKVDDSSNVI; also: cyclic, closure not given here) [compound 1587] | 33%
1588 (GGGGGGGGGDENEKVVKIPKASSTQVRLRPVQIRKIDAANNVV; also: cyclic, closure not given here) [compound 1588] | 30%
1589 (GGGGGGGGGDDSSNVISTPPTSSSRVQLSAISMLYLDDSSNVI; also: cyclic, closure not given here) [compound 1589] | 22%
1590 (GGGGGGGGGDENEKVVRVPSTSSTQVKMSAISMLYLDENEKVV; also: cyclic, closure not given here) [compound 1590] | 23%
1591 (AAAAAAAAADAANNVVKIPKASSSRVRLSSLSTLFFDAANNVV; also: cyclic, closure not given here) [compound 1591] | 21%
1592 (GGGGGGGGGDDSSNVIAASKASSTPTDLNAISTLYFDDSSNVI; also: cyclic, closure not given here) [compound 1592] | 30%
1593 (GGGGGGGGGDENEKVVRVPSTSSTQVDLNAISVLYFDENEKVV; also: cyclic, closure not given here) [compound 1593] | 32%
1594 (AAAAAAAAADAANNVVGIPEPSSVSQELSATSMLYYDAANNVV; also: cyclic, closure not given here) [compound 1594] | 31%
1595 (GGGGGGGGGDDSSNVIGIPEPSSAPTRLEPISMLYLDENEKVV; also: cyclic, closure not given here) [compound 1595] | 27%
1596 (GGGGGGGGGDENEKVVKIPKASSVSQQLEPISTLYLDENEKVV; also: cyclic, closure not given here) [compound 1596] | 19%
1597 (GGGGGGGGGDENEKVVSTPPTSSVPTEVSPINTLYFDENEKVV; also: cyclic, closure not given here) [compound 1597] | 38%
1598 (AAAAAAAAADENEKVVKIPKASSVPTKMKPLSVLYVDDSSNVI; also: cyclic, closure not given here) [compound 1598] | 37%
1599 (GGGGGGGGGDDSSNVISTPPTSSVSQKMKPLSILYVDDSSNVI; also: cyclic, closure not given here) [compound 1599] | 35%
1600 (GGGGGGGGGFDNDENVVRVPSTSSVPEKMEPLTMLYYFDNDENVV; also: cyclic, closure not given here) [compound 1600] | 29%
1601 (GGGGGGGGGFDNDENVVSTPPTSSTPTKMSNITTQIMFDNDENVV; also: cyclic, closure not given here) [compound 1601] | 41%

From patent US20190225651A1, “COMPOUNDS FOR INDUCING TISSUE FORMATION AND USES THEREOF” (HISTIDE AG, priority 2015, published 2019)
